pIC50: −log10 of the molar value. Where two headings read alike, the source gives them in different places.
Key:
[1] = system: human lung cancer cell NCI-H460; test: MTT proliferation assay, NCI-H460; assay type: cell-based; details: for IC50: Homo sapiens, NCI-H460, 96 h, 4 days, read-out: IC50 (nM), inhibition of proliferation of NCI-H460
Experimental: (§1) The cells were seeded into 96-well cell culture plate with a density of 2000/4000 cells per well and incubated overnight in a 5% CO2 incubator at 37° C. […] 5 L diluent of each concentration was added to 120 μL of medium (25 times diluted) and mixed by shaking. The overnight cell plates were taken and the culture medium was removed, 195 μL of fresh medium was added to each well, and 5 μL of diluted medium containing the corresponding concentration of the test compound was added respectively (the final concentration of DMSO is 1%), and the culture plate was then placed in a 5% CO2 incubator at 37° C. for 4 days. After removing the original solution, 100 μL of fresh serum-free DMEM medium containing MTT (0.5 mg/mL) was added to each well, the culture was continued. […] Cell viability (%)=(ODcompound−ODbackground)/(ODDMSO−ODbackground)×100. GraphPad Prism 6.0 was used to analyze the data. The inhibitory activity of compounds on cell proliferation was plotted based on cell viability and the logarithm of compound concentration.

[2] = system: human prostate cancer cell DU145; test: MTT proliferation assay, DU145; assay type: cell-based; details: for IC50: Homo sapiens, DU-145, 96 h, 4 days, read-out: IC50 (nM), inhibition of proliferation of DU145
Experimental: The cells were digested by trypsinase and centrifuged at 800 rpm for 5 minutes, the supernatant was discarded, and the residual was resuspended with fresh medium (DMEM medium+10% FBS+non-essential amino acid) and counted. The cells were seeded into 96-well cell culture plate with a density of 2000 cells per well and incubated overnight in a 5% CO2 incubator at 37° C. […] 5 μL of each concentration was added to 120 μL of medium (25 times diluted) and mixed by shaking. The overnight cell plates were taken and the culture medium was removed, 195 μL of fresh medium was added to each well, and 5 μL of diluted medium containing the corresponding concentration of the test compound was added respectively (the final concentrations of compounds are shown in Table 3, the final concentration of DMSO is 1%), and the culture plate was then placed in a 5% CO2 incubator at 37° C. for 4 days. After removing the original solution, 100 μL of fresh serum-free DMEM medium containing MTT (0.5 mg/mL) was added to each well, the culture was continued. […] GraphPad Prism 6.0 was used to analyze the data. The inhibitory activity of compounds on cell proliferation was plotted based on cell viability and the logarithm of compound concentration. Cell viability %=(ODcompound−ODbackground)/(ODDMSO−ODbackground)×100.

ATR/ATRIP enzyme = biological target: T1, ATR/ATRIP enzyme (Homo sapiens, UniProt Q13535); test: ATR enzyme activity experiment (HTRF); assay type: biochemical; details: for inhibition at 0.05 µM: read-out: Inh %, inhibitory effects on ATR kinase activity at 50 nM
T1 construct: purchased Eurofins 14-953
T1 sequence (Q13535 whole entry): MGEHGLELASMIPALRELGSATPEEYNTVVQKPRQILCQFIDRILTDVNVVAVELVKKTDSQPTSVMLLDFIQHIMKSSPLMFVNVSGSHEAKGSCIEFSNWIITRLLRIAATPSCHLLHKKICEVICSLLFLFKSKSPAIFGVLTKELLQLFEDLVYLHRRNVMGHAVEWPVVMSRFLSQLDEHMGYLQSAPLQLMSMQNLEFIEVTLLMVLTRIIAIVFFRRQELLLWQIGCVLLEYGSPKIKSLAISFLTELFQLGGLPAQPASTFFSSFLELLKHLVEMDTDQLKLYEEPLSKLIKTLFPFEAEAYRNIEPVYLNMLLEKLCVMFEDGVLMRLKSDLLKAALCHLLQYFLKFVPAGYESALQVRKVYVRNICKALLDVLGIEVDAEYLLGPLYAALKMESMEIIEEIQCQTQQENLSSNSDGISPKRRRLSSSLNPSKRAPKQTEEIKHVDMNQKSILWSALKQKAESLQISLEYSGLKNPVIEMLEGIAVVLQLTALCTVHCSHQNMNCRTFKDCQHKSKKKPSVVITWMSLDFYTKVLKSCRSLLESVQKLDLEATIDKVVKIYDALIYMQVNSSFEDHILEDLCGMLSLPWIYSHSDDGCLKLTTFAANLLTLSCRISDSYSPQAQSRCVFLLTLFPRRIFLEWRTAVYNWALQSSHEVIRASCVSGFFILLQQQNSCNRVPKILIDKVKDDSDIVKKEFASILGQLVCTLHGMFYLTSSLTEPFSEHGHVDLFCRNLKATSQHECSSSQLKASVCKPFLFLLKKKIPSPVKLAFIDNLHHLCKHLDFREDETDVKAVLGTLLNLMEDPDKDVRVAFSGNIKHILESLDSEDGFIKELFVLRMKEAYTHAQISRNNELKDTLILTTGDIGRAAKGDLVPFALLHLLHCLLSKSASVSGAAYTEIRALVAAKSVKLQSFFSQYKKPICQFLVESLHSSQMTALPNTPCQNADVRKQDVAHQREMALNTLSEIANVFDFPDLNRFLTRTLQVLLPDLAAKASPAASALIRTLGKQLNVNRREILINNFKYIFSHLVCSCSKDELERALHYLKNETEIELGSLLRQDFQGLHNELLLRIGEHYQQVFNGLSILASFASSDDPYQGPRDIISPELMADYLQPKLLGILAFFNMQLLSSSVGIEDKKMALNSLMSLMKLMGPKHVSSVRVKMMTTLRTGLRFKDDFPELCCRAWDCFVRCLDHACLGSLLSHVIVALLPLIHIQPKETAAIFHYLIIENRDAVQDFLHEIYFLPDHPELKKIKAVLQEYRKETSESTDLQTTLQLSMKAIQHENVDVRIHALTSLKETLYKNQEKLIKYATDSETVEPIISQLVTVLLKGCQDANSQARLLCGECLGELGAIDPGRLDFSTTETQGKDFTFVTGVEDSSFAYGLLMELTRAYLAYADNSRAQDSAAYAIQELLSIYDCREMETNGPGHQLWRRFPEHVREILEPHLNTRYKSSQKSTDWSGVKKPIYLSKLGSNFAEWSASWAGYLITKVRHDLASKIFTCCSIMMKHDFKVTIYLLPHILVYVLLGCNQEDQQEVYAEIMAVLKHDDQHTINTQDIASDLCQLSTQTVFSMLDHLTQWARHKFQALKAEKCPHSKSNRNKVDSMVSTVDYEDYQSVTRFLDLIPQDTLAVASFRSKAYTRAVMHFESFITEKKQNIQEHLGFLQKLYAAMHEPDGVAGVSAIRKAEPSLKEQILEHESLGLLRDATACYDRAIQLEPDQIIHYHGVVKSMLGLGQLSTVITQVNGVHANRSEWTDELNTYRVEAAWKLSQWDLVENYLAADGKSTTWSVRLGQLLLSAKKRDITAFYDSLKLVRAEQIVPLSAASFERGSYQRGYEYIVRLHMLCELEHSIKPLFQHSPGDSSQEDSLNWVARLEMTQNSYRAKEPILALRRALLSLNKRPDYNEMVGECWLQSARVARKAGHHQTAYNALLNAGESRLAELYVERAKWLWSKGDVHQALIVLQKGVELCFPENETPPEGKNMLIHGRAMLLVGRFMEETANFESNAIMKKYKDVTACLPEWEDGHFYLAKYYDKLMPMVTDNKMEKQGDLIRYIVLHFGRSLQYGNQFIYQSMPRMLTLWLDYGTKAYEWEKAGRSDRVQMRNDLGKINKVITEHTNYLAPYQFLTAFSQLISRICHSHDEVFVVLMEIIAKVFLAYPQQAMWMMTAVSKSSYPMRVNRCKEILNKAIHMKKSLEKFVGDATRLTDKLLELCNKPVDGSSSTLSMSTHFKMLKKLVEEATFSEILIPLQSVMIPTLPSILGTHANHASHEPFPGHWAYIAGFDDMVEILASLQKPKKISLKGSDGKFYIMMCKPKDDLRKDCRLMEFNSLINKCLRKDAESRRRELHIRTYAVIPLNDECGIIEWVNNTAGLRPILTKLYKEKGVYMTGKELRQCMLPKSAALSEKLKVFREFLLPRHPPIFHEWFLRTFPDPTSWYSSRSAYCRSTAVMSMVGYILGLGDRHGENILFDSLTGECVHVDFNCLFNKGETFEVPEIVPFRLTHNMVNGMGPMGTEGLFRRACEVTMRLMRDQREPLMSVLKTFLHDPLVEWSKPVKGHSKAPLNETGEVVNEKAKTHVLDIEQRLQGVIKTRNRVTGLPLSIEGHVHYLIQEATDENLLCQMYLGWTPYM
T1 sequence (Q8WXE1 whole entry partner): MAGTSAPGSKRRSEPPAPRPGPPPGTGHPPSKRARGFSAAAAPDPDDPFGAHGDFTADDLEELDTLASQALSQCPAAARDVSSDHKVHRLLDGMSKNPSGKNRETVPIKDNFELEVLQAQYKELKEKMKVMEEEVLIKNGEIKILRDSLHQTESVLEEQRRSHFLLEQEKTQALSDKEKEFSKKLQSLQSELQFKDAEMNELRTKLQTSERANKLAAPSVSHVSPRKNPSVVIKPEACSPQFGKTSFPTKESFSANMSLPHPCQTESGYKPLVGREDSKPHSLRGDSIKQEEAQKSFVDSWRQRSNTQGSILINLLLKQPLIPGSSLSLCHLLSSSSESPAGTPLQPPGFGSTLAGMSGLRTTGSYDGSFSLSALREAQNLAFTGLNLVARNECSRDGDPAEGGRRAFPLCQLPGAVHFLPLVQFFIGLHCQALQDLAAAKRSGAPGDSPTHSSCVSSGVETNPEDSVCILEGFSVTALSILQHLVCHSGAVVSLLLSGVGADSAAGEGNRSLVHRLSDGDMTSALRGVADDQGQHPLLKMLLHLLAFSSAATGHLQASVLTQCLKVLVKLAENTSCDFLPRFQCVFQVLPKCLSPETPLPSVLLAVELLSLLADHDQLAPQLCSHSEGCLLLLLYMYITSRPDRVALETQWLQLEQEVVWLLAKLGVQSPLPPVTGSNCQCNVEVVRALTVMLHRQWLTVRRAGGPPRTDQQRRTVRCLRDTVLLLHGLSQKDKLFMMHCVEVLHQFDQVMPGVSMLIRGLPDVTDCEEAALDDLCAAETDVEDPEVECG
Experimental: The test compound was diluted to a 4× final concentration with reaction buffer (25 mM HEPES (pH8.0), 10 mM MnCl2, 1% glycerol, 0.01% Brij-35, 5 mM DTT and 0.1% BSA). […] The mixture was centrifuged at 1000 rpm for 1 minute, and reacted at room temperature protected from light for 30 minutes. Then 5 μL of EDTA stop solution (250 mM) was added to stop the reaction. […] Data were analyzed using GraphPad Prism6.0, and fitted using the curve equation: Y=Bottom+(Top−Bottom)/(1+10^((Log IC50−X)*HillSlope)) and IC50 values were calculated.

[3] = system: human colon cancer cell LoVo; test: MTT proliferation assay, LoVo; assay type: cell-based; details: for IC50: Homo sapiens, LoVo, 96 h, 4 days, read-out: IC50 (nM), inhibition of proliferation of LoVo
Experimental: as §1, with “5 μL” for “5 L”, “viability (%)=(ODcompound−ODbackground)/(ODDMSO-ODbackground)×100.” for “viability (%)=(ODcompound−ODbackground)/(ODDMSO−ODbackground)×100.”

[4] = HTRF, p53 substrate, 30 minutes at room temperature

What does the source list for `C[C@@H]1CN(c2cc(N3CCOC[C@H]3C)nn3c(-c4ccn[nH]4)cnc23)C[C@H](C)O1` [Example 10, (2S,6R)-2,6-dimethyl-4-(6-((R)-3-methylmorpholino)-3-(1H-pyrazol-5-yl)imidazo[1,2-b]pyridazin-8-yl)morpholine]?
IC50 [1]: 1110 nM; IC50 [2]: 2300 nM

Which results are given for `C[C@@H]1COCCN1c1cc(-c2ccnn2C)c2ncc(-c3ccn[nH]3)n2n1` [Example 2, (R)-3-methyl-4-(8-(1-methyl-1H-pyrazol-5-yl)-3-(1H-pyrazol-5-yl)imidazo[1,2-b]pyridazin-6-yl)morpholine]?
inhibitory effect on the proliferation of NCI-H460 cell (in words) [1]: inhibitory effect; IC50 [1]: 907 nM; inhibitory effect on the proliferation of DU145 cell (in words) [2]: inhibitory effect; IC50 [2]: 1220 nM; IC50 (ATR/ATRIP enzyme; read-out: IC50 (nM), inhibitory effects on ATR kinase activity, HTRF, p53 substrate, 30 minutes at room temperature): 938 nM; inhibitory effect on the proliferation of LoVo cell (in words) [3]: inhibitory effect

How did the IC50 [1] turn out when `CC(C)n1nccc1-c1cc(N2CCOC[C@H]2C)nn2c(-c3ccn[nH]3)cnc12` [Example 4, (R)-3-methyl-4-(8-(1-isopropyl-1H-pyrazol-5-yl)-3-(1H-pyrazol-5-yl)imidazo[1,2-b]pyridazin-6-yl)morpholine] was run?
The IC50 was 531 nM.

What about the IC50 [2] of the same molecule?
Its IC50 is 1090 nM.

For `Cc1ccc(-c2cc(N3CCOC[C@H]3C)nn3c(-c4ccn[nH]4)cnc23)cn1` [Example 6, (R)-3-methyl-4-(8-(6-methylpyridin-3-yl)-3-(1H-pyrazol-5-yl)imidazo[1,2-b]pyridazin-6-yl)morpholine], which IC50 [1] is on record?
The IC50 was 322 nM.

And the IC50 [2]?
Its IC50 is 914 nM.

What does the source list for `C[C@@H]1COCCN1c1cc(N2CCOCC2)c2ncc(-c3ccn[nH]3)n2n1` [Example 9, (R)-3-methyl-4-(8-morpholino-3-(1H-pyrazol-5-yl)imidazo[1,2-b]pyridazin-6-yl)morpholine]?
IC50 [1]: 583 nM; IC50 [2]: 1630 nM

`C[C@H]1COCCN1c1cc(-c2ccnn2C)c2cnc(-c3ccn[nH]3)n2n1` [Example 33, (S)-3-methyl-4-(4-(1-methyl-1H-pyrazol-5-yl)-7-(1H-pyrazol-5-yl)imidazo[1,5-b]pyridazin-2-yl)morpholine] was tested. Which IC50 [1] did it give?
Its IC50 is 256 nM.

And the inhibition at 0.05 µM (ATR/ATRIP enzyme)?
The inhibition at 0.05 µM was 27%.

And the IC50 [3]?
Its IC50 is 230 nM.

`C[C@@H]1COCCN1c1cc(-c2ccnn2C)n2ncc(-c3ccn[nH]3)c2n1` [Example 16, (R)-3-methyl-4-(7-(1-methyl-1H-pyrazol-5-yl)-3-(1H-pyrazol-5-yl)pyrazolo[1,5-a]pyrimidin-5-yl)morpholine] was tested. Which IC50 [1] did it give?
Its IC50 is 527 nM.

What about the IC50 [2] of the same molecule?
The IC50 was 1370 nM.

Which IC50 [1] does the source give for `C[C@@H]1COCCN1c1cc(N2CCOCC2)c2cnc(-c3ccn[nH]3)n2n1` [Example 46, (R)-3-methyl-4-(4-morpholino-7-(1H-pyrazol-5-yl)imidazo[1,5-b]pyridazin-2-yl)morpholine] here?
Its IC50 is 77.8 nM.

And the pIC50 (ATR/ATRIP enzyme; [4])?
Its pIC50 is 7.92.

What about the IC50 [3] of the same molecule?
The IC50 was 72.8 nM.

What does the source list for `Cc1cc(S(C)(=O)=O)ccc1-c1cc(N2CCOC[C@H]2C)nn2c(-c3ccn[nH]3)ncc12` [Example 49, (R)-3-methyl-4-(4-(2-methyl-4-(methylsulfonyl)phenyl)-7-(1H-pyrazol-5-yl)imidazo[1,5-b]pyridazin-2-yl)morpholine]?
IC50 [1]: 43 nM; pIC50 (ATR/ATRIP enzyme; [4]): 8.22; IC50 [3]: 32.9 nM

Which results are given for `C[C@@H]1COCCN1c1cc(C2CC2)c2cnc(-c3ccn[nH]3)n2n1` [Example 32, (R)-4-(4-cyclopropyl-7-(1H-pyrazol-5-yl)imidazo[1,5-b]pyridazin-2-yl)-3-methylmorpholine]?
IC50 [1]: 78.6 nM; pIC50 (ATR/ATRIP enzyme; [4]): 7.82; IC50 [3]: 87.3 nM

`Cc1ncncc1-c1cc(N2CCOC[C@H]2C)nn2c(-c3ccn[nH]3)ncc12` [Example 45, (R)-3-methyl-4-(4-(4-methylpyrimidin-5-yl)-7-(1H-pyrazol-5-yl)imidazo[1,5-b]pyridazin-2-yl)morpholine] was tested. Which IC50 [1] did it give?
Its IC50 is 78.8 nM.

And the pIC50 (ATR/ATRIP enzyme; [4])?
The pIC50 was 8.30.

What about the IC50 [3] of the same molecule?
Its IC50 is 84.2 nM.

For `C[C@@H]1COCCN1c1cc(-c2ccccc2F)c2ncc(-c3ccn[nH]3)n2n1` [Example 8, (R)-3-methyl-4-(8-(2-fluorophenyl)-3-(1H-pyrazol-5-yl)imidazo[1,2-b]pyridazin-6-yl)morpholine], which IC50 [1] is on record?
The IC50 was 409 nM.

And the IC50 [2]?
Its IC50 is 1110 nM.

What does the source list for `CCn1nccc1-c1cc(N2CCOC[C@H]2C)nn2c(-c3ccn[nH]3)cnc12` [Example 3, (R)-3-methyl-4-(8-(1-ethyl-1H-pyrazol-5-yl)-3-(1H-pyrazol-5-yl)imidazo[1,2-b]pyridazin-6-yl)morpholine]?
IC50 [1]: 1040 nM; IC50 [2]: 1100 nM

For `C[C@@H]1COCCN1c1cc(-c2ccc(S(C)(=O)=O)cc2)c2ncc(-c3ccn[nH]3)n2n1` [Example 7, (R)-3-methyl-4-(8-(4-(methylsulfonyl)phenyl)-3-(1H-pyrazol-5-yl)imidazo[1,2-b]pyridazin-6-yl)morpholine], which IC50 [1] is on record?
The IC50 was 864 nM.

And the IC50 [2]?
Its IC50 is 1200 nM.

`C[C@@H]1COCCN1c1cc(-c2ccnn2C)c2cnc(-c3ccc[nH]3)n2n1` [Example 22, (R)-3-methyl-4-(4-(1-methyl-1H-pyrazol-5-yl)-7-(1H-pyrrol-2-yl)imidazo[1,5-b]pyridazin-2-yl)morpholine] was tested. Which IC50 [1] did it give?
Its IC50 is 1150 nM.

And the pIC50 (ATR/ATRIP enzyme; [4])?
Its pIC50 is 8.69.

And the IC50 [3]?
Its IC50 is 854 nM.

Which results are given for `Cc1nc(S(C)(=O)=O)ccc1-c1cc(N2CCOC[C@H]2C)nn2c(-c3ccn[nH]3)ncc12` [Example 48, (R)-3-methyl-4-(4-(2-methyl-6-(methylsulfonyl)pyridin-3-yl)-7-(1H-pyrazol-5-yl)imidazo[1,5-b]pyridazin-2-yl)morpholine]?
IC50 [1]: 156 nM; pIC50 (ATR/ATRIP enzyme; [4]): 7.96; IC50 [3]: 133 nM

What does the source list for `CC(C)n1nccc1-c1cc(N2CCOC[C@H]2C)nn2c(-c3ccn[nH]3)ncc12` [Example 26, (R)-4-(4-(1-isopropyl-1H-pyrazol-5-yl)-7-(1H-pyrazol-5-yl)imidazo[1,5-b]pyridazin-2-yl)-3-methylmorpholine]?
IC50 [1]: 55.2 nM; pIC50 (ATR/ATRIP enzyme; [4]): 8.22; IC50 [3]: 68.2 nM

With `Cc1n[nH]cc1-c1cc(N2CCOC[C@H]2C)nn2c(-c3ccn[nH]3)ncc12` [Example 38, (R)-3-methyl-4-(4-(3-methyl-1H-pyrazol-4-yl)-7-(1H-pyrazol-5-yl)imidazo[1,5-b]pyridazin-2-yl)morpholine] as the molecule, how does the IC50 [1] read?
Its IC50 is 419 nM.

What about the inhibition at 0.05 µM (ATR/ATRIP enzyme) of the same molecule?
Its inhibition at 0.05 µM is 90%.

And the IC50 [3]?
Its IC50 is 128 nM.

How did the IC50 [1] turn out when `Cn1nccc1-c1cc(N2CCOCC2)nn2c(-c3ccn[nH]3)ncc12` [Example 11, 4-(4-(1-methyl-1H-pyrazol-5-yl)-7-(1H-pyrazol-5-yl)imidazol[1,5-b]pyridazin-2-yl)morpholine] was run?
The IC50 was 159 nM.

And the inhibition at 0.05 µM (ATR/ATRIP enzyme)?
The inhibition at 0.05 µM was 63%.

What about the IC50 [3] of the same molecule?
The IC50 was 168 nM.

Which IC50 [1] does the source give for `C[C@@H]1COCCN1c1cc(-c2cccc(C#N)c2)c2cnc(-c3ccn[nH]3)n2n1` [Example 52, (R)-3-(2-(3-methylmorpholino)-7-(1H-pyrazol-5-yl)imidazo[1,5-b]pyridazin-4-yl)benzonitrile] here?
The IC50 was 26.3 nM.

And the pIC50 (ATR/ATRIP enzyme; [4])?
The pIC50 was 8.05.

And the IC50 [3]?
The IC50 was 41.9 nM.

Reference: patent US12479848B2, “Substituted fused heteroaromatic bicyclic compounds as kinase inhibitors and the use thereof” (IMPACT THERAPEUTICS (SHANGHAI), INC, priority 2019, dated 2025)
